Data published in US7196110B2, “N-substituted tricyclic 3-aminopyrazoles as inhibitors for the treatment of cell proliferative disorders” (Janssen Phamaceutica N.V., priority 2002, dated 2007).

Key:
[1] = molecular target: T1, PDGF-receptor beta enzyme comprising the tyrosine kinase domain (Homo sapiens, UniProt P09619); assay: Inhibition of PDGF-receptor kinase activity (cell-free, PLC1 peptide, 33P Flashplate); type: biochemical; conditions: PDGF-R kinase activity; for inhibition at 10 µM: compound at 10 uM, read-out: Percent Inhibition @ 10 uM; for IC50: read-out: IC50
T1 construct: from amino acid 545 to 1106 of GenBank Access NO: AAA36427
Summary of the method: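 Recombinant kinase domain (aa 545–1106) phosphorylated a biotinylated PLC1 peptide with 5 μM ATP plus 33P-γ-ATP, in Tris pH 8, MgCl2, Na3VO4 and 1 mM DTT, for 60 min at 30 °C. Retained 33P was counted after washing. IC50 is the concentration halving activity versus no-inhibitor reactions.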

[2] = molecular target: c-Abl kinase (Abelson murine leukemia virus, UniProt P00521); assay: Inhibition of c-Abl kinase activity (cell-free, Abl peptide substrate, 33P Flashplate); type: biochemical; conditions: IC50 for the c-Abl kinase activity
Protocol: The inhibitory activity of compounds within the scope of the invention on c-Abl kinase activity was tested according to the following procedure.
• 1. 10× Kinase Buffer [500 mM Tris-HCl pH=8, 100 mM MgCl2, 1 mM Na3VO4] • 2. 10 mM DTT [final concentration 1 mM] • 3. 10 mM ATP [final concentration 5 μM] (Gibco, Cat No:18330-019, Carlsbad, Calif.) • 4. ^33P-γ-ATP [NEG-602H; 2000–3000 Ci/mmol], 2 μCuries per well at 10 μCi/μl (0.2 μl/well) • 5. Abl enzyme (New England Biolabs, Cat No. P6050L, Beverly, Mass.) at 100 Units/μl use 10 Units/well (0.1 μl/well) • 6. Enzyme Dilution Buffer [50 mM Tris-HCl pH=8.0, 0.1% BSA] • 7. Wash/Stop Buffer [PBS+100 mM EDTA] • 8. NEN Streptavidin Flashplates (New England Nuclear, Cat No. SMP-103, Boston, Mass.). • 9. Abl Peptide Substrate (Biotin-[…]-amide) at 1 mM in 50 mM Tris-HCL pH=8.0. (Use at 1.0 μM). Procedure
Reagents were first mixed according to the following regimen:
The above reaction mixture was dispensed into each well of a Flashplate at 70 μl/well. To test the effect of a compound on Abl kinase activity, the test compound either in a fixed concentration or in serially diluted concentrations in 100% DMSO was added to appropriate wells at 1 μl/well.
Enzyme Abl was diluted in enzyme dilution buffer as following:
The kinase reaction was started by adding 30 μl of diluted Abl enzyme solution to each well on the Flashplate containing hot ATP (2 μCi/well) and Abl peptide substrate (at 1 μM final conc.), except wells of column 12 rows E and F, which were used to calculate the plate background. The Flashplate was swirled to mix and was incubated at 30° C. for 60 minutes. Then, the reaction mixture was discarded and the Flashplate was washed 3 times each with 200 μL Wash/Stop Buffer. Subsequently, each well on the Flashplate was filled with 200 μl of Wash/Stop buffer. The amount of ^33P retained in each well was measured using a Packard TopCount after the plate was sealed with a transparent plate sealer.
In order to test the potency of inhibition of present compounds, an IC50 for an individual compound was measured using the above procedure. As used herein, the IC50 for c-Abl kinase activity refers to the concentration of an inhibitor at which the activity of c-Abl kinase is reduced by one-half as compared with reactions containing no inhibitor.

T1 sequence (P09619 545-1106): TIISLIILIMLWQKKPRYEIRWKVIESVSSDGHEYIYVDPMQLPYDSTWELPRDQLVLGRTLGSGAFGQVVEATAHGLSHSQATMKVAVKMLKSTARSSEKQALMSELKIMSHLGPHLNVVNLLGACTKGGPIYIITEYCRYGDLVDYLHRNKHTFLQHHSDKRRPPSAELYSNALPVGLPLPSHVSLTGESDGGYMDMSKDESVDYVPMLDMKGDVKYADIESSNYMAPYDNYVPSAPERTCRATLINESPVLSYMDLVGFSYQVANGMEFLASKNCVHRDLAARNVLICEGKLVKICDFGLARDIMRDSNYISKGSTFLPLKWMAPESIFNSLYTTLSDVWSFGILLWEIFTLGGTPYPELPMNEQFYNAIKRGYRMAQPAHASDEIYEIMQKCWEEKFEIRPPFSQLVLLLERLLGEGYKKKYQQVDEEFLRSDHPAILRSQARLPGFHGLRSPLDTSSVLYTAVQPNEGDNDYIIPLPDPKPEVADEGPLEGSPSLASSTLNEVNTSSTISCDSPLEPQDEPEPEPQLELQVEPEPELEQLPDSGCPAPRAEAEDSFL
Sequence of c-Abl kinase (P00521 115-385): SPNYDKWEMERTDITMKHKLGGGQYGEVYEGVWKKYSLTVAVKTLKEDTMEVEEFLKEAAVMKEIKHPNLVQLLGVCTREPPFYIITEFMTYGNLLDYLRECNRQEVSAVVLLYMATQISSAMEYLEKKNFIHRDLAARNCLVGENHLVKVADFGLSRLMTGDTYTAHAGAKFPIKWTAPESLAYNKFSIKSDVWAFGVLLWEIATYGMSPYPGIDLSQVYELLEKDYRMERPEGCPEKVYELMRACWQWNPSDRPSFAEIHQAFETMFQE

Row | Structure (SMILES) | inhibition at 10 µM [1] | IC50 [1] | IC50 [2]
1 | CCc1cccc(Nc2[nH]nc3c2Cc2cc(OC)c(OC)cc2-3)c1 [Compound 209, (6,7-Dimethoxy-2,4-dihydro-indeno[1,2-c]pyrazol-3-yl)-(3-ethyl-phenyl)-amine] | 99% | 32.8 nM | 7 nM
2 | COc1cc2c(cc1OC)-c1n[nH]c(Nc3ccc(OCc4ccccc4)cc3)c1C2 [Compound 218, (4-Benzyloxy-phenyl)-(6,7-dimethoxy-2,4-dihydro-indeno[1,2-c]pyrazol-3-yl)-amine] | 81% | 2010 nM | 439 nM
3 | COc1cc2c(cc1OCCCn1ccnc1)Cc1c-2n[nH]c1Nc1cccc(F)c1 [Compound 226, (3-Fluoro-phenyl)-[6-(3-imidazol-1-yl-propoxy)-7-methoxy-2,4-dihydro-indeno[1,2-c]pyrazol-3-yl]-amine] | 102% | 3 nM | 245 nM
4 | COc1cc2c(cc1OCCCn1ccnc1)Cc1c-2n[nH]c1Nc1ccc(F)c(Cl)c1 [Compound 227, (3-Chloro-4-fluoro-phenyl)-[6-(3-imidazol-1-yl-propoxy)-7-methoxy-2,4-dihydro-indeno[1,2-c]pyrazol-3-yl]-amine] | 83.5% | 34.9 nM | 641 nM
5 | COc1cc2c(cc1OC)C(C)c1c-2n[nH]c1Nc1ccccc1 (stereo not drawn) [Compound 247, (6,7-Dimethoxy-4-methyl-2,4-dihydro-indeno[1,2-c]pyrazol-3-yl)-phenyl-amine] | 96% | 70 nM | 33 nM
6 | COc1cc2c(cc1OC)C(C)c1c-2n[nH]c1Nc1cccc(F)c1 (stereo not drawn) [Compound 249, (6,7-Dimethoxy-4-methyl-2,4-dihydro-indeno[1,2-c]pyrazol-3-yl)-(3-fluoro-phenyl)-amine] | 96% | 6 nM | 35 nM
7 | COc1cccc(Nc2[nH]nc3c2C(C)c2cc(OC)c(OC)cc2-3)c1 (stereo not drawn) [Compound 253, (6,7-Dimethoxy-4-methyl-2,4-dihydro-indeno[1,2-c]pyrazol-3-yl)-(3-methoxy-phenyl)-amine] | 94% | 16.5 nM | 37.9 nM
8 | COc1cc2c(cc1OC)C(C)c1c-2n[nH]c1Nc1cccc(Br)c1 (stereo not drawn) [Compound 256, (3-Bromo-phenyl)-(6,7-dimethoxy-4-methyl-2,4-dihydro-indeno[1,2-c]pyrazol-3-yl)-amine] | 89% | 8 nM | 55 nM
9 | COc1cccc(Nc2[nH]nc3c2Cc2cc(OCC(O)CO)c(OC)cc2-3)c1 (stereo not drawn) [Compound 260, 3-[7-Methoxy-3-(3-methoxy-phenylamino)-2,4-dihydro-indeno[1,2-c]pyrazol-6-yloxy]-propane-1,2-diol] | 91% | 1.5 nM | 13 nM
10 | COc1cc2c(cc1OCC(O)CO)Cc1c-2n[nH]c1Nc1ccc(F)c(Cl)c1 (stereo not drawn) [Compound 261, 3-[3-(3-Chloro-4-fluoro-phenylamino)-7-methoxy-2,4-dihydro-indeno[1,2-c]pyrazol-6-yloxy]-propane-1,2-diol] | 71% | 10 nM | 64 nM
11 | COc1cc2c(cc1OCC(O)CO)Cc1c-2n[nH]c1Nc1cccc(F)c1 (stereo not drawn) [Compound 262, 3-[3-(3-Fluoro-phenylamino)-7-methoxy-2,4-dihydro-indeno[1,2-c]pyrazol-6-yloxy]-propane-1,2-diol] | 90% | 1 nM | 27 nM
12 | COc1cc2c(cc1OCC(O)CO)Cc1c-2n[nH]c1Nc1cccnc1 (stereo not drawn) [Compound 263, 3-[7-Methoxy-3-(pyridn-3-ylamino)-2,4-dihydro-indeno[1,2-c]pyrazol-6-yloxy]-propane-1,2-diol] | 103% | 46 nM | 512 nM
13 | COc1cc2c(cc1OCCCO)Cc1c-2n[nH]c1Nc1cccc(F)c1 [Compound 265, 3-[3-(3-Fluoro-phenylamino)-7-methoxy-2,4-dihydro-indeno[1,2-c]pyrazol-6-yloxy]-propan-1-ol] | 63% | 5.53 nM | 85 nM
14 | COc1cccc(Nc2[nH]nc3c2Cc2cc(OCCCO)c(OC)cc2-3)c1 [Compound 266, 3-[7-Mehoxy-3-(3-methoxy-phenylamino)-2,4-dihydro-indeno[1,2-c]pyrazol-6-yloxy]-propan-1-ol] | 110% | 1.53 nM | 15 nM
15 | COc1cc2c(cc1OCCCO)Cc1c-2n[nH]c1Nc1ccc(F)c(Cl)c1 [Compound 267, 3-[3-(3-Choloro-4-fluoro-phenylamino)-7-methoxy-2,4-dihydro-indeno[1,2-c]pyrazol-6-yloxy]-propan-1-ol] | 93.5% | 10.6 nM | 326 nM
16 | COc1cc2c(cc1OCCCO)Cc1c-2n[nH]c1Nc1cccc(Cl)c1 [Compound 268, 3-[3-(3-Chloro-phenylamino)-7-methoxy-2,4-dihydro-indeno[1,2-c]pyrazol-6-yloxy]-propan-1-ol] | 84% | 1.13 nM | 20 nM
17 | COc1cc2c(cc1OCC(O)CN1CCCC1)Cc1c-2n[nH]c1Nc1cccc(F)c1 (stereo not drawn) [Compound 269, 1-[3-(3-Fluoro-phenylamino)-7-methoxy-2,4-dihydro-indeno[1,2-c]pyrazol-6-yloxy]-3-pyrrolidin-1-yl-propan-2-ol] | 94% | 0.591 nM | 101 nM
18 | COc1cccc(Nc2[nH]nc3c2Cc2cc(OCC(O)CN4CCCC4)c(OC)cc2-3)c1 (stereo not drawn) [Compound 270, 1-[7-Methoxy-3-(3-methoxy-phenylamino)-2,4-dihydro-indeno[1,2-c]pyrazol-6-yloxy]-3-pyrrolidin-1-yl-propan-2-ol] | 107% | 0.429 nM | 36 nM
19 | COc1cc2c(cc1OCC(O)CN1CCCC1)Cc1c-2n[nH]c1Nc1ccc(F)c(Cl)c1 (stereo not drawn) [Compound 280, 1-[3-(3-Chloro-4-fluoro-phenylamino)-7-methoxy-2,4-dihydro-indeno[1,2-c]pyrazol-6-yloxy]-3-pyrrolidin-1-yl-propan-2-ol] | 102% | 1.72 nM | 363 nM
20 | COc1cc2c(cc1OCC(O)CN1CCCC1)Cc1c-2n[nH]c1Nc1cccnc1 (stereo not drawn) [Compound 281, 1-[7-Methoxy-3-(pyridin-3-ylamino)-2,4-dihydro-indeno[1,2-c]pyrazol-6-yloxy]-3-pyrrolidin-1-yl-propan-2-ol] | 67% | 2.6 nM | 1580 nM
21 | COc1cc2c(cc1OCC(O)CN1CCCC1)Cc1c-2n[nH]c1Nc1cccc(Cl)c1 (stereo not drawn) [Compound 282, 1-[3-(3-Chloro-phenylamino)-7-methoxy-2,4-dihydro-indeno[1,2-c]pyrazol-6-yloxy]-3-pyrrolidin-1-yl-propan-2-ol] | 99% | 0.089 nM | 43 nM
22 | COCCCOc1cc2c(cc1OCCCOC)-c1n[nH]c(Nc3cccc(F)c3)c1C2 [Compound 283, [6,7-Bis-(3-methoxy-propoxy)-2,4-dihydroindeno[1,2-c]pyrazol-3-yl]-(3-fluoro-phenyl)-amine] | 86.5% | 4.36 nM | 340 nM
23 | COCCCOc1cc2c(cc1OCCCOC)-c1n[nH]c(Nc3cccc(OC)c3)c1C2 [Compound 284, [6,7-Bis-(3-methoxy-propoxy)-2,4-dihydroindeno[1,2-c]pyrazol-3-yl]-(3-methoxy-phenyl)-amine] | 84.6% | 5.09 nM | 69 nM
